In patent publication US7259140B2, “Heparin-binding peptides and uses thereof” (Thomas Jefferson University, priority 2003, dated 2007):
Entries after “also recorded” stand apart in the source; their conditions may differ. Ends that are not written are not given here.

Columns and labels:
[1] = tested on: Anti-Factor Xa Activity of the Non-Heparin Glycosaminoglycan Orgaran ®; assay: Anti-Factor Xa assay: neutralization of Orgaran in citrate or plasma in vitro; type: biochemical, human
Description: The ability of peptides such as (ARKKAAKA)3VLVLVLVL (SEQ ID NO:5) to neutralize the anti-Factor Xa activity of UFH and LMWH in vitro was tested using the Stachrom Heparin kit (Diagnostica Stago), a standard hematology laboratory assay used to measure the anti-Factor Xa activity of heparin. The assay was performed using the low molecular weight heparin enoxaparin sodium (Lovenox®, Aventis Pharmaceuticals, Inc.), unfractionated heparin (UFH), or the non-heparin glycosaminoglycan danaparoid sodium (Orgaran®, Organon Inc., West Orange, N.J.) in 0.32% citrate or in plasma anticoagulated with 0.32% citrate. Enoxaparin is commonly used clinically as a low molecular weight heparin (LMWH). Danaparoid is commonly used clinically as a non-heparin glycosaminoglycan anticoagulant. Currently, the only FDA approved drug to target UFH is protamine, which is not effective in vivo against LMWH or a non-heparin glycosaminoglycan such as danaparoid. Buffer and ATIII are added to form the heparin/ATIII complex, peptide is added, then Factor Xa, reporter dye substrate for Factor Xa activity, and stop solution, and the dye concentration is read at 405 nm. The absorbance of the dye increases with increasing Factor Xa activity, and thus is inversely proportional to the heparin (anti-Factor Xa activity) concentration. Peptides were tested in plasma obtained from three volunteers (A, B, and C). Platelet function inhibitors PG12 and theophylline were added to the blood immediately upon collection. […]

platelets = assay: Platelet aggregation with aggregation-inducing agents; type: cell-based, human; settings: 12 μg/ml; Lovenox 0.5 U/ml; collagen, ADP, ristocetin, epinephrine, SFFLRN, A23187
Procedure, shortened: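 Plasma from six donors, platelets equilibrated 1 min before agonist (collagen, ADP, ristocetin, epinephrine, SFFLRN, A23187; several concentrations each). Heparin-binding peptides at 12 μg/ml, Lovenox at 0.5 U/ml, protamine also tested. Percent aggregation monitored over 5 min.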

[2] = tested on: anti-Factor Xa Activity of Unfractionated Heparin; assay: Anti-Factor Xa assay: neutralization of unfractionated heparin in citrate or plasma in vitro; type: biochemical, human; settings: UFH 0.7 U/ml
Procedure, shortened: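 Chromogenic anti-Factor Xa kit run with UFH, enoxaparin (Lovenox) or danaparoid (Orgaran) in 0.32% citrate or citrated plasma from three volunteers. Heparin/ATIII complex formed, peptide added, then Factor Xa and dye substrate; absorbance at 405 nm, inversely proportional to remaining anti-Factor Xa activity.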

[3] = Hemodynamic effects in rats without prior Lovenox; settings: 2 mg per rat, no Lovenox
Description: Rats were sedated, and catheters were inserted into the femoral vein and femoral artery. The femoral artery catheter was hooked up to the computerized monitoring system, and injections were made through the femoral vein. Peptides were injected into rats without prior injection of Lovenox. Two or more rats (300-350 grams) were treated with 2 mg protamine or peptide.
At the times indicated in the figures, the following actions were taken: administration of saline to insure that the animal and intubations were stable; administration of test peptide or protamine alone; then administration of protamine.

[4] = Hemodynamic effects in rats after administration of the LMWH Lovenox; settings: in the presence of LMWH Lovenox
Description: Next, experiments were performed in which the animals were treated with the peptides after the administration of the LMWH Lovenox®, as would happen in the clinical situation, because binding of peptides to LMWH would be expected to reduce the effects of the peptides on hemodynamic function.

[5] = tested on: unfractionated heparin (thrombin-induced clot formation); assay: Thrombin neutralization assay: clotting time of citrated plasma in the presence of unfractionated heparin; type: biochemical, human; settings: UFH 0.5 IU/ml
Description: It was determined whether heparin-binding peptides of the invention can neutralize unfractionated heparin using the thrombin neutralization assay. The six peptides that were synthesized and used in this Example are: (ARKKAAKA)3VLVLVLVL (SEQ ID NO:5); (ARKKAAKA)(A16)(ARKKAAKA) (SEQ ID NO:30); (ARKKAAKA)4 (SEQ ID NO:31); (AKKARA)6 (SEQ ID NO:32); (ARKKAAKA)3(ARKKCAKA) (SEQ ID NO:33); and cyclized C(ARKKAAKA)4C (SEQ ID NO:34); Citrated plasma was pipetted into a glass tube. Thrombin was added, the tube was manually rotated, and clotting time was determined by observation of clot formation. Normal clotting time is 19-22 seconds.
As a control, to assess the effect of heparin on clot formation, unfractionated heparin was added to the plasma at 0.5 IU anti-thrombin activity/ml and then thrombin was added. Clotting time in the presence of heparin alone was greater than 3 minutes.
To test the effect of peptides, heparin and six peptides at the concentrations indicated in Table 4 were added to the plasma, the mixture was allowed to stand at room temperature for 1 minute, and thrombin was added. The time for the clot to form is indicated. Experiments were performed using plasma from three volunteers—A, B, and C.

ARKKAAKAARKKAAKAARKKAAKAARKKAAKA [(ARKKAAKA)4]
Orgaran Neutralized ([1]; 1 μg/ml Peptide, A Plasma): 0.026 ± 0.021 U/ml | Orgaran Neutralized ([1]; 1 μg/ml Peptide, B Plasma): 0.025 ± 0.009 U/ml | Orgaran Neutralized ([1]; 1 μg/ml Peptide, C Plasma): 0.020 ± 0.012 U/ml | Orgaran Neutralized ([1]; 1 μg/ml Peptide, Citrate): 0.021 ± 0.022 U/ml | Orgaran Neutralized ([1]; 6 μg/ml Peptide, A Plasma): 0.061 ± 0.006 U/ml | Orgaran Neutralized ([1]; 6 μg/ml Peptide, B Plasma): 0.057 ± 0.022 U/ml | Orgaran Neutralized ([1]; 6 μg/ml Peptide, C Plasma): 0.074 ± 0.056 U/ml | Orgaran Neutralized ([1]; 6 μg/ml Peptide, Citrate): 0.172 ± 0.028 U/ml | Orgaran Neutralized ([1]; 12 μg/ml Peptide, A Plasma): 0.082 ± 0.012 U/ml | Orgaran Neutralized ([1]; 12 μg/ml Peptide, B Plasma): 0.110 ± 0.021 U/ml | Orgaran Neutralized ([1]; 12 μg/ml Peptide, C Plasma): 0.116 ± 0.021 U/ml | Orgaran Neutralized ([1]; 12 μg/ml Peptide, Citrate): 0.178 ± 0.021 U/ml | Orgaran Neutralized ([1]; 60 μg/ml Peptide, A Plasma): 0.211 ± 0.029 U/ml | Orgaran Neutralized ([1]; 60 μg/ml Peptide, B Plasma): 0.192 ± 0.009 U/ml | Orgaran Neutralized ([1]; 60 μg/ml Peptide, C Plasma): 0.182 ± 0.006 U/ml | Orgaran Neutralized ([1]; 60 μg/ml Peptide, Citrate): 0.298 ± 0.044 U/ml | Orgaran Neutralized ([1]; 120 μg/ml Peptide, A Plasma): 0.286 ± 0.040 U/ml | Orgaran Neutralized ([1]; 120 μg/ml Peptide, B Plasma): 0.302 ± 0.012 U/ml | Orgaran Neutralized ([1]; 120 μg/ml Peptide, C Plasma): 0.299 ± 0.024 U/ml | Orgaran Neutralized ([1]; 120 μg/ml Peptide, Citrate): 0.366 ± 0.019 U/ml | effect on platelet aggregation (platelets): no significant inhibition or enhancement of aggregation | Unfractionated Heparin Neutralized ([2]; 1 μg/ml Peptide, A Plasma): 0.069 ± 0.023 U/ml | Unfractionated Heparin Neutralized ([2]; 1 μg/ml Peptide, B Plasma): 0.124 ± 0.047 U/ml | Unfractionated Heparin Neutralized ([2]; 1 μg/ml Peptide, C Plasma): 0.076 ± 0.014 U/ml | Unfractionated Heparin Neutralized ([2]; 1 μg/ml Peptide, Citrate): 0.056 ± 0.019 U/ml | Unfractionated Heparin Neutralized ([2]; 6 μg/ml Peptide, A Plasma): 0.334 ± 0.016 U/ml | Unfractionated Heparin Neutralized ([2]; 6 μg/ml Peptide, B Plasma): 0.361 ± 0.038 U/ml | Unfractionated Heparin Neutralized ([2]; 6 μg/ml Peptide, C Plasma): 0.397 ± 0.004 U/ml | Unfractionated Heparin Neutralized ([2]; 6 μg/ml Peptide, Citrate): 0.423 ± 0.014 U/ml | Unfractionated Heparin Neutralized ([2]; 12 μg/ml Peptide, A Plasma): 0.412 ± 0.010 U/ml | Unfractionated Heparin Neutralized ([2]; 12 μg/ml Peptide, B Plasma): 0.395 ± 0.012 U/ml | Unfractionated Heparin Neutralized ([2]; 12 μg/ml Peptide, C Plasma): 0.396 ± 0.018 U/ml | Unfractionated Heparin Neutralized ([2]; 12 μg/ml Peptide, Citrate): 0.370 ± 0.020 U/ml | Unfractionated Heparin Neutralized ([2]; 60 μg/ml Peptide, A Plasma): 0.389 ± 0.018 U/ml | Unfractionated Heparin Neutralized ([2]; 60 μg/ml Peptide, B Plasma): 0.442 ± 0.056 U/ml | Unfractionated Heparin Neutralized ([2]; 60 μg/ml Peptide, C Plasma): 0.401 ± 0.012 U/ml | Unfractionated Heparin Neutralized ([2]; 60 μg/ml Peptide, Citrate): 0.378 ± 0.023 U/ml | Unfractionated Heparin Neutralized ([2]; 120 μg/ml Peptide, A Plasma): 0.364 ± 0.032 U/ml | Unfractionated Heparin Neutralized ([2]; 120 μg/ml Peptide, B Plasma): 0.392 ± 0.075 U/ml | Unfractionated Heparin Neutralized ([2]; 120 μg/ml Peptide, C Plasma): 0.374 ± 0.020 U/ml | Unfractionated Heparin Neutralized ([2]; 120 μg/ml Peptide, Citrate): 0.361 ± 0.028 U/ml | time to nadir of blood pressure [3]: 2 min | effect on blood pressure and heart rate / toxicity [4]: no significant effect on blood pressure and heart rate; also recorded: All four rats tested showed no response | Time for clot formation ([5]; 0.30 μg peptide/0.1 ml, plasma A): 56.33 ± 4.92 s | Time for clot formation ([5]; 0.30 μg peptide/0.1 ml, plasma B): 53.33 ± 1.25 s | Time for clot formation ([5]; 0.35 μg peptide/0.1 ml, plasma A): 22.33 ± 0.47 s | Time for clot formation ([5]; 0.35 μg peptide/0.1 ml, plasma B): 39.00 ± 5.35 s | Time for clot formation ([5]; 0.35 μg peptide/0.1 ml, plasma C): 32.67 ± 0.47 s | Time for clot formation ([5]; 0.40 μg peptide/0.1 ml, plasma A): 18.67 ± 0.94 s | Time for clot formation ([5]; 0.40 μg peptide/0.1 ml, plasma B): 26.30 ± 1.25 s | Time for clot formation ([5]; 0.40 μg peptide/0.1 ml, plasma C): 22.67 ± 1.25 s | Time for clot formation ([5]; 0.50 μg peptide/0.1 ml, plasma A): 19.67 ± 1.25 s | Time for clot formation ([5]; 0.50 μg peptide/0.1 ml, plasma B): 24.00 ± 0.82 s | Time for clot formation ([5]; 0.50 μg peptide/0.1 ml, plasma C): 20.67 ± 0.94 s
